# Target: hNav1.7 (Homo sapiens, UniProt Q15858)
# Assay: Voltage-dependent inhibition of the Nav1.7 sodium channel
# Type: cell-based
# Details: voltage-dependent block of peak current
# Protocol: HEK-293 cells stably expressing wild-type (WT) hNav1.7 were obtained from Scottish Biomedical (Glasgow, Scotland, United Kingdom). Cells are maintained with standard tissue culture procedures and stable channel expression is maintained with 500 ug/mL G418 in the culture medium. Unless otherwise noted, all reagents are purchased from Sigma-Aldrich (St Louis, Mo., U.S.A.).
# Assays measuring Voltage-Dependent Block (VDB) of Nav1.7 are performed on an automated electrophysiology platform, QPatch 16X or QPatch HT (Sophion Bioscience, Copenhagen, Denmark), using the whole cell patch clamp technique to measure currents through the cell membrane. Series resistance compensation is set to 100% and series resistance and whole-cell compensation are performed automatically. Currents stored in the Sophion Bioscience Oracle database (Sophion Bioscience, Copenhagen, Denmark). Analysis is performed using QPatch Assay software and data are compiled in Excel 2010 (Microsoft, Seattle, Wash., U.S.A.).
# The internal (pipette) solution consists of (in mM) 105 CsF, 10 NaF, 20 CsCl, 2 EGTA, 10 HEPES, 10 Dextrose with a pH of 7.35 and osmolarity of 300 mOsmol/kg. The external (bath) solution contains in (mM): 140 NaCl, 4 KCl, 1.8 CaCl2, 1 MgCl2, 10 dextrose, 10 HEPES, with a pH of 7.35 and osmolarity of 310 mOsmol/kg. Experiments are carried out at 23-25° C.
# Compound stocks are routinely made by the Gilead Sample Bank in vials to 10 mM in dimethyl sulfoxide (DMSO). In some cases, when compounds are not soluble in DMSO, they are made in 100% ethanol. Stocks are sonicated as necessary. Compounds are diluted in extracellular solution using a MicroLab Nimbus (Hamilton Robotics, Reno, Nev.) to 1 μM in glass vials and transferred to glass well plates before robotic addition to the cells.
# Cells are allowed to stabilize for 10 min after establishment of the whole-cell configuration before current is measured. The test compound is applied 3 times at 120 second intervals to allow for equilibration. Currents were leak subtracted using a P/4 procedure, low-pass Bessel filtered at 5 kHz and digitized at 25 kHz. Results are presented as mean percentage inhibition.
# Voltage-dependent block of Nav1.7 peak current was measured during a voltage step to 0 mV (20 ms) following a voltage step pre-conditioning steps (−60 mV for 10 sec followed by −120 mV for 10 ms). The holding potential was −120 mV and this voltage protocol induces half maximal inactivation of Nav1.7. The voltage protocol for VDB was performed every 45 seconds in the absence and presence of compound and percentage inhibition was calculated with respect to the compound free condition.
# Chain of hNav1.7 (Q15858 whole entry): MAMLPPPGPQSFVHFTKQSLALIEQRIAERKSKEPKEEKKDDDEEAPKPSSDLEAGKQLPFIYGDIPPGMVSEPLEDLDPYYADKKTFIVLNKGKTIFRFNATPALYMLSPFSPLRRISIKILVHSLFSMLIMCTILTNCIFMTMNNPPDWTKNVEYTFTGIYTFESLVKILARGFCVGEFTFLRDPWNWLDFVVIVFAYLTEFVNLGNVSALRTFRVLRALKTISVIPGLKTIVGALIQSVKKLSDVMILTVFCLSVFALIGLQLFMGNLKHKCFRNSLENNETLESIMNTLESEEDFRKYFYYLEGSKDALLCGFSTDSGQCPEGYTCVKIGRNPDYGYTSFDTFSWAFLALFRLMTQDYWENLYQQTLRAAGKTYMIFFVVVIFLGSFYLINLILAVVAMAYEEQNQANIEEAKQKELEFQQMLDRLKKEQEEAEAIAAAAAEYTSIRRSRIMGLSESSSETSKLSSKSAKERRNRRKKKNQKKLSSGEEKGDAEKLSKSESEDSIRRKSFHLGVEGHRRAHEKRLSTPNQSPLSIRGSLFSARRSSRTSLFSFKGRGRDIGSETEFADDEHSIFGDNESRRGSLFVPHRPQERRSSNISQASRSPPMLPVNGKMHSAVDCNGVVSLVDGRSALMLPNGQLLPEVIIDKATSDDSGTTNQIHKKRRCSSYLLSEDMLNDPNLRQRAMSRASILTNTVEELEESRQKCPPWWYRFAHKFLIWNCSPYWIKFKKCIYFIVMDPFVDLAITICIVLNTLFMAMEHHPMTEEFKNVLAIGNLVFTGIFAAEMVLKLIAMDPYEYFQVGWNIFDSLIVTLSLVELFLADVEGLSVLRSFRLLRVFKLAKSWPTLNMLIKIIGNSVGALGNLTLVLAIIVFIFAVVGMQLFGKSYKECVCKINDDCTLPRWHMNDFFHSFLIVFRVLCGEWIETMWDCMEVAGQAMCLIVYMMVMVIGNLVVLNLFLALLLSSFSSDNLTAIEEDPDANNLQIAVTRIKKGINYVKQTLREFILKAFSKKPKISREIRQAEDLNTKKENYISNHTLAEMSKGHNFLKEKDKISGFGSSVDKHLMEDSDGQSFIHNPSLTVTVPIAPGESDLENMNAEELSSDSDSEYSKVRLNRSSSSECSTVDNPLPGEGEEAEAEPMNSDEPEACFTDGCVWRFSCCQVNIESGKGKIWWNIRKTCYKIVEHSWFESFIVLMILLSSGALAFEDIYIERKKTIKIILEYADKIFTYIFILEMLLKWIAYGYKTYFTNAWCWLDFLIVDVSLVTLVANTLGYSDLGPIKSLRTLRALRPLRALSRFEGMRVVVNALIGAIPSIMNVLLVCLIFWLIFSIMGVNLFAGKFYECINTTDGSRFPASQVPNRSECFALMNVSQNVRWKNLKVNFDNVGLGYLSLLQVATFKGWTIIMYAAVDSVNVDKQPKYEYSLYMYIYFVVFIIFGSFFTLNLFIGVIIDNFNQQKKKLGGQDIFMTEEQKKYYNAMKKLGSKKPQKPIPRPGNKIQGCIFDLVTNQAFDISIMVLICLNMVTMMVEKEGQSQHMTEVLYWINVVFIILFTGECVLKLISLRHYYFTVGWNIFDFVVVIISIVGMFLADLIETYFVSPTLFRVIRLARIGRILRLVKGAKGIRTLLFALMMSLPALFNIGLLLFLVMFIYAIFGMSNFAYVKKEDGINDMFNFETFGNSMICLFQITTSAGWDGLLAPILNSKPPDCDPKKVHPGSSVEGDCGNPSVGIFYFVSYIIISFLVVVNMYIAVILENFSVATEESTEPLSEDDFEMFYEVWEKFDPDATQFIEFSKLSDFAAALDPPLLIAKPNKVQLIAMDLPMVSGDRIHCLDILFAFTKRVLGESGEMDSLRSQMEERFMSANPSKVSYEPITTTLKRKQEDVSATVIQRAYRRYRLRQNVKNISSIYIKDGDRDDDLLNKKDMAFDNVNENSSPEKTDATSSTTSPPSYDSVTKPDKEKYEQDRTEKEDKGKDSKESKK
structure (smiles),measurement,value
"Cc1cc(OC(F)(F)F)ccc1-c1cc2c(OCc3ncccn3)noc2cc1C [Example 29, 6-methyl-5-(2-methyl-4-(trifluoromethoxy)phenyl)-3-(pyrimidin-2-ylmethoxy)benzo[d]isoxazole]",Nav 1.7-VDB 1 uM,34.2 percentage inhibition
